Results reported in article PMC12030301, “Caffeic Acid Phenethyl Ester (CAPE) Inhibits Arginase Activity and Growth of Leishmania amazonensis Promastigotes and Intracellular Amastigotes” (Pathogens, 2025).

Target: T1, arginase
T1 construct: purified recombinant arginase
Experiment: enzyme inhibition kinetics with purified recombinant arginase; Dixon and Cornish-Bowden plots (IC50 […])
Assay type: biochemical, Leishmania amazonensis

O=C(/C=C/c1ccc(O)c(O)c1)OCCc1ccccc1 [CAPE, Caffeic acid phenethyl ester]
Ki: 1.51 ± 0.04 µM
